Reference: patent US7022311B1, “Powdery inhalational preparations and process for producing the same” (Kaken Pharmaceutical Co., Ltd., priority 1999, dated 2006)

How the values were obtained:
[1] = In vitro lung delivery fraction test with multi-stage cascade impactor (Andersen sampler, Jethaler); type: physicochemical; conditions: 28.3 L/min; for Residual and Distributed Fractions of Active Ingredient: Capsule / Residual and Distributed Fractions of Active Ingredient: Inhaler device / Residual and Distributed Fractions of Active Ingredient: Stage 0 / Residual and Distributed Fractions of Active Ingredient: Stage 1 / Residual and Distributed Fractions of Active Ingredient: Stages 2–7 / Residual and Distributed Fractions of Active Ingredient: Throat / Capsule, residual active ingredient / Inhaler device, residual active ingredient / Stage 0, distribution of active ingredient / Stage 1, distribution of active ingredient / Stages 2–7, lung delivery fraction / Throat, distribution of active ingredient: S-36496 10%
Experimental: Capsulated preparations (The Japanese Pharmacopeia No. 2 HPMC capsules: manufactured by Shionogi Qualicaps Co., Ltd.) which were filled with about 40 mg each of three dry powder inhalations were prepared and mounted on an inhaler device (Jethaler; Unisia Jecs Corp.) The Jethaler was then attached to the mouthpiece of a cascade impactor (Andersen sampler Model AN-200) and inspired at a flow rate of 28.3 L/min., thereby dispersing the micronized medication in the capsule and measuring the residual active ingredient in the capsule and in the inhaler device as well as the distribution of the active ingredient at each stage with liquid chromatography. It was confirmed that in the in vitro test with cascade impactor, the lung delivery fraction at stages 2–7 corresponding to the respiring fraction differed substantially depending on the different carrier particles.
(§1) Capsulated preparations (The Japanese Pharmacopeia No. 2HPMC capsules: manufactured by Shionogi Qualicaps Co., Ltd.), which were filled with about 40 mg each of three dry powder inhalations, were prepared and mounted on an inhaler device (Jethaler®; Unisia Jecs Corp.). The Jethaler® brand device was then attached to the mouthpiece of a cascade impactor (Andersen sampler; Model AN-200) and inspired at a flow rate of 28.3 L/min., thereby dispersing the dry powder inhalation in the capsule and measuring the residual active ingredient in the capsule and in the inhaler device as well as the distribution of the active ingredient at each stage with liquid chromatography.
(§2) A capsulated preparation (The Japanese Pharmacopeia No. 2HPMC capsules: manufactured by Shionogi Qualicaps Co., Ltd.) which was filled with about 40 mg of the prepared dry powder inhalations was prepared and mounted on an inhaler device (Jethaler; Unisia Jecs Corp.) The Jethaler was then attached to the mouthpiece of a cascade impactor (Andersen sampler; Model AN-200) and inspired at a flow rate of 28.3 L/min., thereby dispersing the dry powder inhalation in the capsule and measuring the residual active ingredient in the capsule and in the inhaler device as well as the distribution of the active ingredient at each stage with liquid chromatography.
as §1, with “A capsulated preparation (The” for “Capsulated preparations (The”, “which was” for “which were”, “mg” for “mg each”, “chromatography. […]” for “chromatography.”
as §2, with “2 HPMC” for “2HPMC”, “Ltd.)” for “Ltd.) which was”, “inhalation” for “inhalations”

[2] = Dispersibility of active ingredient from carrier particles, laser diffraction particle size analyzer; type: physicochemical; conditions: Example 17: S-36496 10%, micronized lactose 1%, carrier trehalose 89%, particles of 10 μm or less
[3] = Example 10: S-36496 3.2%, carrier lactose 95.8%, micronized lactose 1.0%
[4] = Example 17: S-36496 10%, micronized lactose 1%, carrier trehalose 89%, Vertical Granulator 5 min
[5] = micronized lactose 1%, carrier trehalose 89% of particle size 48.6 μm
[6] = micronized lactose 1%, carrier trehalose 89% of particle size 81.0 μm
[7] = micronized lactose 1%, carrier trehalose 89% of particle size 97.9 μm
[8] = micronized lactose 1%, erythritol carrier 89% of mean particle diameter 53.8 μm
[9] = micronized lactose 1%, erythritol carrier 89% of mean particle diameter 81.6 μm
[10] = micronized lactose 1%, erythritol carrier 89% of mean particle diameter 155.9 μm

CC(C)c1csc(COc2cccc(CN(CCCCNS(=O)(=O)c3ccc(Cl)cc3)S(=O)(=O)c3ccccc3C(=O)O)c2)n1 [Example S-36496, 2-{N-[4-(4-chlorobenzenesulfonylamino)butyl]-N-{3-[(4-isopropyl-2-thiazoyl)methoxy]benzyl}}sulfamoylbenzenolic acid]
Residual and Distributed Fractions of Active Ingredient (%): Capsule [1, 3]: 8.2% | Residual and Distributed Fractions of Active Ingredient (%): Inhaler device [1, 3]: 19.3% | Residual and Distributed Fractions of Active Ingredient (%): Stage 0 [1, 3]: 19.5% | Residual and Distributed Fractions of Active Ingredient (%): Stage 1 [1, 3]: 9.1% | Residual and Distributed Fractions of Active Ingredient (%): Stages 2–7 [1, 3]: 18.2% | Residual and Distributed Fractions of Active Ingredient (%): Throat [1, 3]: 25.7% | Residual and Distributed Fractions of Active Ingredient (%): Capsule [1, 4]: 7.3% | Residual and Distributed Fractions of Active Ingredient (%): Inhaler device [1, 4]: 19.4% | Residual and Distributed Fractions of Active Ingredient (%): Stage 0 [1, 4]: 22.3% | Residual and Distributed Fractions of Active Ingredient (%): Stage 1 [1, 4]: 5.8% | Residual and Distributed Fractions of Active Ingredient (%): Stages 2–7 [1, 4]: 30.2% | Residual and Distributed Fractions of Active Ingredient (%): Throat [1, 4]: 15.0% | Residual and Distributed Fractions of Active Ingredient: Capsule [1, 5]: 9.0% | Residual and Distributed Fractions of Active Ingredient: Inhaler device [1, 5]: 24.2% | Residual and Distributed Fractions of Active Ingredient: Stage 0 [1, 5]: 24.7% | Residual and Distributed Fractions of Active Ingredient: Stage 1 [1, 5]: 2.9% | Residual and Distributed Fractions of Active Ingredient: Stages 2–7 [1, 5]: 6.4% | Residual and Distributed Fractions of Active Ingredient: Throat [1, 5]: 32.8% | Residual and Distributed Fractions of Active Ingredient: Capsule [1, 6]: 4.9% | Residual and Distributed Fractions of Active Ingredient: Inhaler device [1, 6]: 19.1% | Residual and Distributed Fractions of Active Ingredient: Stage 0 [1, 6]: 18.4% | Residual and Distributed Fractions of Active Ingredient: Stage 1 [1, 6]: 2.0% | Residual and Distributed Fractions of Active Ingredient: Stages 2–7 [1, 6]: 31.4% | Residual and Distributed Fractions of Active Ingredient: Throat [1, 6]: 24.2% | Residual and Distributed Fractions of Active Ingredient: Capsule [1, 7]: 5.8% | Residual and Distributed Fractions of Active Ingredient: Inhaler device [1, 7]: 25.1% | Residual and Distributed Fractions of Active Ingredient: Stage 0 [1, 7]: 18.2% | Residual and Distributed Fractions of Active Ingredient: Stage 1 [1, 7]: 5.8% | Residual and Distributed Fractions of Active Ingredient: Stages 2–7 [1, 7]: 17.9% | Residual and Distributed Fractions of Active Ingredient: Throat [1, 7]: 27.2% | Capsule, residual active ingredient [1, 8]: 3.0% | Inhaler device, residual active ingredient [1, 8]: 18.2% | Stage 0, distribution of active ingredient [1, 8]: 28.9% | Stage 1, distribution of active ingredient [1, 8]: 3.5% | Stages 2–7, lung delivery fraction [1, 8]: 24.4% | Throat, distribution of active ingredient [1, 8]: 22.0% | Capsule, residual active ingredient [1, 9]: 2.6% | Inhaler device, residual active ingredient [1, 9]: 14.6% | Stage 0, distribution of active ingredient [1, 9]: 21.8% | Stage 1, distribution of active ingredient [1, 9]: 3.8% | Stages 2–7, lung delivery fraction [1, 9]: 40.4% | Throat, distribution of active ingredient [1, 9]: 16.9% | Capsule, residual active ingredient [1, 10]: 2.5% | Inhaler device, residual active ingredient [1, 10]: 2.9% | Stage 0, distribution of active ingredient [1, 10]: 66.4% | Stage 1, distribution of active ingredient [1, 10]: 15.2% | Stages 2–7, lung delivery fraction [1, 10]: 11.3% | Throat, distribution of active ingredient [1, 10]: 1.7% | Dispersibility of drugs (active ingredient) (%) ([2]; Spray Pressure 0.2 kg/cm^2): 8.3% | Dispersibility of drugs (active ingredient) (%) ([2]; Spray Pressure 0.3 kg/cm^2): 9.4%
